Measurements published in patent US6914045B2, “Glycopeptide antibiotics” (Wyeth Holdings Corporation, priority 2001, dated 2005).
In brackets after ≈: the same amount, converted by molar mass.

Key:
Experiment in all cases: in vitro antibacterial evaluation, MIC by broth dilution
Type in all cases: cell-based
[1] = tested on: Staphylococcus sp.; conditions: broth dilution, 18 hours at 35° C.
How it was run: (§1)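 Broth dilution per NCCLS standard M7-A2 in Muller-Hinton II […], with an inoculum of 5×10^5 CFU/mL and antibiotic spanning 64-0.06 μg/mL. The MIC is the lowest concentration that inhibits growth of the organism.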

[2] = tested on: Enterococcus sp.; conditions: broth dilution, 18 hours at 35° C.
How it was run: as §1

[3] = tested on: Streptococcus sp.; conditions: broth dilution, 18 hours at 35° C.
How it was run: as §1

[4] = tested on: Escherichia coli; conditions: 18 hours at 35° C.

MIC Coagulase Negative Staphylococcus (GC 4547) [1]: 2 µg/mL (≈ 1.31 µM)
MIC Coagulase Negative Staphylococcus (GC 4548) [1]: 1 µg/mL (≈ 0.657 µM)
MIC Coagulase Negative Staphylococcus (GC 4549) [1]: 2 µg/mL (≈ 1.31 µM)
MIC Coagulase Negative Staphylococcus (GC 4551) [1]: 2 µg/mL (≈ 1.31 µM)
MIC Coagulase Negative Staphylococcus (GC 6257) [1]: 2 µg/mL (≈ 1.31 µM)
MIC Staphylococcus aureus (ATCC 29213) [1]: 4 µg/mL (≈ 2.63 µM)
MIC Staphylococcus aureus (GC 1131) [1]: 4 µg/mL (≈ 2.63 µM)
MIC Staphylococcus aureus (GC 3051) [1]: 2 µg/mL (≈ 1.31 µM)
MIC Staphylococcus aureus (GC 3053) [1]: 4 µg/mL (≈ 2.63 µM)
MIC Staphylococcus aureus (GC 4541) [1]: 4 µg/mL (≈ 2.63 µM)
MIC Staphylococcus aureus (GC 4542) [1]: 4 µg/mL (≈ 2.63 µM)
MIC Staphylococcus aureus (GC 4544) [1]: 4 µg/mL (≈ 2.63 µM)
MIC Staphylococcus aureus (GC 4545) [1]: 4 µg/mL (≈ 2.63 µM)
MIC Staphylococcus aureus-SMITH (GC 4543) [1]: 2 µg/mL (≈ 1.31 µM)
MIC Staphylococcus aureus (ATCC 29213) ([1]; strain ATCC 29213): 4 µg/mL (≈ 2.63 µM)
MIC Staphylococcus aureus (GC 1131) ([1]; strain GC 1131): 4 µg/mL (≈ 2.63 µM)
MIC Staphylococcus aureus (GC 3051) ([1]; strain GC 3051): 2 µg/mL (≈ 1.31 µM)
MIC Staphylococcus aureus (GC 3053) ([1]; strain GC 3053): 4 µg/mL (≈ 2.63 µM)
MIC Staphylococcus aureus (GC 4541) ([1]; strain GC 4541): 4 µg/mL (≈ 2.63 µM)
MIC Staphylococcus aureus (GC 4542) ([1]; strain GC 4542): 4 µg/mL (≈ 2.63 µM)
MIC Staphylococcus aureus-SMITH (GC 4543) ([1]; strain GC 4543): 2 µg/mL (≈ 1.31 µM)
MIC Staphylococcus aureus (GC 4544) ([1]; strain GC 4544): 4 µg/mL (≈ 2.63 µM)
MIC Staphylococcus aureus (GC 4545) ([1]; strain GC 4545): 4 µg/mL (≈ 2.63 µM)
MIC Coagulase Negative Staphylococcus (GC 4547) ([1]; strain GC 4547): 2 µg/mL (≈ 1.31 µM)
MIC Coagulase Negative Staphylococcus (GC 4548) ([1]; strain GC 4548): 1 µg/mL (≈ 0.657 µM)
MIC Coagulase Negative Staphylococcus (GC 4549) ([1]; strain GC 4549): 2 µg/mL (≈ 1.31 µM)
MIC Coagulase Negative Staphylococcus (GC 4551) ([1]; strain GC 4551): 2 µg/mL (≈ 1.31 µM)
MIC Coagulase Negative Staphylococcus (GC 6257) ([1]; strain GC 6257): 2 µg/mL (≈ 1.31 µM)
MIC Enterococcus avium (GC 4558) [2]: 8 µg/mL (≈ 5.26 µM)
MIC Enterococcus faecalis (ATCC 29212) [2]: 8 µg/mL (≈ 5.26 µM)
MIC Enterococcus faecalis (GC 2242) [2]: 8 µg/mL (≈ 5.26 µM)
MIC Enterococcus faecalis (GC 2691) [2]: 8 µg/mL (≈ 5.26 µM)
MIC Enterococcus faecalis (GC 3059) [2]: 8 µg/mL (≈ 5.26 µM)
MIC Enterococcus faecalis (GC 4552) [2]: 8 µg/mL (≈ 5.26 µM)
MIC Enterococcus faecalis (GC 4553) [2]: 8 µg/mL (≈ 5.26 µM)
MIC Enterococcus faecalis (GC 4554) [2]: 16 µg/mL (≈ 10.5 µM)
MIC Enterococcus faecalis (GC 6189) [2]: 8 µg/mL (≈ 5.26 µM)
MIC Enterococcus faecium (GC 2243) [2]: 8 µg/mL (≈ 5.26 µM)
MIC Enterococcus faecium (GC 4556) [2]: 8 µg/mL (≈ 5.26 µM)
MIC Enterococcus faecium (GC 4557) [2]: 4 µg/mL (≈ 2.63 µM)
MIC Enterococcus faecalis (ATCC 29212) ([2]; strain ATCC 29212): 8 µg/mL (≈ 5.26 µM)
MIC Enterococcus faecium (GC 2243) ([2]; strain GC 2243): 8 µg/mL (≈ 5.26 µM)
MIC Enterococcus faecalis (GC 4552) ([2]; strain GC 4552): 8 µg/mL (≈ 5.26 µM)
MIC Enterococcus faecalis (GC 4553) ([2]; strain GC 4553): 8 µg/mL (≈ 5.26 µM)
MIC Enterococcus faecalis (GC 4554) ([2]; strain GC 4554): 16 µg/mL (≈ 10.5 µM)
MIC Enterococcus faecium (GC 4556) ([2]; strain GC 4556): 8 µg/mL (≈ 5.26 µM)
MIC Enterococcus faecium (GC 4557) ([2]; strain GC 4557): 4 µg/mL (≈ 2.63 µM)
MIC Enterococcus avium (GC 4558) ([2]; strain GC 4558): 8 µg/mL (≈ 5.26 µM)
MIC Enterococcus faecalis (GC 6189) ([2]; strain GC 6189): 8 µg/mL (≈ 5.26 µM)
MIC Enterococcus faecalis (GC 2242) ([2]; inoculum 5×10^5 CFU/mL, strain GC 2242): 8 µg/mL (≈ 5.26 µM)
MIC Enterococcus faecalis (GC 2691) ([2]; inoculum 5×10^5 CFU/mL, strain GC 2691): 8 µg/mL (≈ 5.26 µM)
MIC Enterococcus faecalis (GC 3059) ([2]; inoculum 5×10^5 CFU/mL, strain GC 3059): 8 µg/mL (≈ 5.26 µM)
MIC Streptococcus agalactiae (GC 4564) [3]: 1 µg/mL (≈ 0.657 µM)
MIC Streptococcus pneumoniae (ATCC 6301) [3]: 0.25 µg/mL (≈ 0.164 µM)
MIC Streptococcus pneumoniae (GC 1894) [3]: <0.06 µg/mL
MIC Streptococcus pneumoniae (GC 4565) [3]: 0.25 µg/mL (≈ 0.164 µM)
MIC Streptococcus pyogenes (GC 4563) [3]: 2 µg/mL (≈ 1.31 µM)
MIC Streptococcus pneumoniae (ATCC 6301) ([3]; inoculum 5×10^5 CFU/mL, strain ATCC 6301): 0.25 µg/mL (≈ 0.164 µM)
MIC Streptococcus pneumoniae (GC 1894) ([3]; inoculum 5×10^5 CFU/mL, strain GC 1894): <0.06 µg/mL
MIC Streptococcus pyogenes (GC 4563) ([3]; inoculum 5×10^5 CFU/mL, strain GC 4563): 2 µg/mL (≈ 1.31 µM)
MIC Streptococcus agalactiae (GC 4564) ([3]; inoculum 5×10^5 CFU/mL, strain GC 4564): 1 µg/mL (≈ 0.657 µM)
MIC Streptococcus pneumoniae (GC 4565) ([3]; inoculum 5×10^5 CFU/mL, strain GC 4565): 0.25 µg/mL (≈ 0.164 µM)
MIC Escherichia coli (ATCC 25922) [4]: >64 µg/mL
MIC Escherichia coli (GC 4559) [4]: >64 µg/mL
MIC Escherichia coli (GC 4560) [4]: 2 µg/mL (≈ 1.31 µM)
Compound: COc1ccc(COC2C(CO)OC(OC3C(CO)OC(Oc4ccc(CC5NC(=O)C(C(C)c6ccccc6)NC(=O)CNC(=O)C(CO)NC(=O)C(C(O)C6CNC(=N)N6C6OC(CO)C(O)C(O)C6O)NC(=O)C(C(O)C6CNC(=N)N6)NC5=O)cc4)C(O)C3O)C(O)C2O)cc1OCc1ccccc1 (stereo not shown) [Example 239a]
MIC Staphylococcus haemolyticus (GC 4546) [1]: 2 µg/mL (≈ 1.31 µM)
MIC Staphylococcus haemolyticus (GC 4546) ([1]; strain GC 4546): 2 µg/mL (≈ 1.31 µM)
